Measured values taken from PubChem BioAssay (NCI).
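Interpolation was linear, between the two tested concentrations surrounding the appropriate level; five concentrations were tested over 48 hours in 96-well plates. GI50: concentration for 50% inhibition of growth. TGI is the concentration that stops growth completely.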

Key:
Assay in all cases: NCI-60 cell line screen, 48 h
786-0 renal = tested on: 786-0 renal
A498 renal = tested on: A498 renal
A549 NSCLC = tested on: A549 NSCLC
ACHN renal = tested on: ACHN renal
BT-549 breast = tested on: BT-549 breast
CAKI-1 renal = tested on: CAKI-1 renal
CCRF-CEM leukemia = tested on: CCRF-CEM leukemia
COLO 205 colon = tested on: COLO 205 colon
DU-145 prostate = tested on: DU-145 prostate
EKVX NSCLC = tested on: EKVX NSCLC
HCC-2998 colon = tested on: HCC-2998 colon
HCT-116 colon = tested on: HCT-116 colon
HCT-15 colon = tested on: HCT-15 colon
HL-60(TB) leukemia = tested on: HL-60(TB) leukemia
HOP-62 NSCLC = tested on: HOP-62 NSCLC
HOP-92 NSCLC = tested on: HOP-92 NSCLC
HS 578T breast = tested on: HS 578T breast
HT29 colon = tested on: HT29 colon
IGROV1 ovarian = tested on: IGROV1 ovarian
K-562 leukemia = tested on: K-562 leukemia
KM12 colon = tested on: KM12 colon
LOX IMVI melanoma = tested on: LOX IMVI melanoma
M14 melanoma = tested on: M14 melanoma
MALME-3M melanoma = tested on: MALME-3M melanoma
MCF7 breast = tested on: MCF7 breast
MDA-MB-231 breast = tested on: MDA-MB-231 breast
MDA-MB-435 = tested on: MDA-MB-435
MOLT-4 leukemia = tested on: MOLT-4 leukemia
NCI-H226 lung = tested on: NCI-H226 lung
NCI-H23 lung = tested on: NCI-H23 lung
NCI-H460 lung = tested on: NCI-H460 lung
NCI-H522 lung = tested on: NCI-H522 lung
NCI/ADR-RES ovarian = tested on: NCI/ADR-RES ovarian
OVCAR-3 ovarian = tested on: OVCAR-3 ovarian
OVCAR-4 ovarian = tested on: OVCAR-4 ovarian
OVCAR-5 ovarian = tested on: OVCAR-5 ovarian
OVCAR-8 ovarian = tested on: OVCAR-8 ovarian
PC-3 prostate = tested on: PC-3 prostate
RPMI-8226 leukemia = tested on: RPMI-8226 leukemia
RXF 393 renal = tested on: RXF 393 renal
SF-268 CNS = tested on: SF-268 CNS
SF-295 CNS = tested on: SF-295 CNS
SF-539 CNS = tested on: SF-539 CNS
SK-MEL-2 melanoma = tested on: SK-MEL-2 melanoma
SK-MEL-28 melanoma = tested on: SK-MEL-28 melanoma
SK-MEL-5 melanoma = tested on: SK-MEL-5 melanoma
SK-OV-3 ovarian = tested on: SK-OV-3 ovarian
SN12C renal = tested on: SN12C renal
SNB-19 CNS = tested on: SNB-19 CNS
SNB-75 CNS = tested on: SNB-75 CNS
SR leukemia = tested on: SR leukemia
SW-620 colon = tested on: SW-620 colon
T-47D breast = tested on: T-47D breast
TK-10 renal = tested on: TK-10 renal
U251 CNS = tested on: U251 CNS
UACC-257 melanoma = tested on: UACC-257 melanoma
UACC-62 melanoma = tested on: UACC-62 melanoma
UO-31 renal = tested on: UO-31 renal

Cc1ccc(-c2cc(-c3ccc(C)cc3)nc(N3CCN(CCNc4ccnc5cc(Cl)ccc45)CC3)n2)cc1
GI50 (786-0 renal): 1.81 µM | TGI (786-0 renal): 6.95 µM | GI50 (A498 renal): 9.69 µM | TGI (A498 renal): 30.4 µM | GI50 (A549 NSCLC): 3.62 µM | TGI (A549 NSCLC): 13.3 µM | GI50 (ACHN renal): 6.18 µM | TGI (ACHN renal): 14.5 µM | GI50 (BT-549 breast): 6.06 µM | TGI (BT-549 breast): 17 µM | GI50 (CAKI-1 renal): 7.56 µM | TGI (CAKI-1 renal): 16.4 µM | GI50 (CCRF-CEM leukemia): 1.77 µM | TGI (CCRF-CEM leukemia): > 50 µM | GI50 (COLO 205 colon): 1.71 µM | TGI (COLO 205 colon): 8.76 µM | GI50 (DU-145 prostate): 2.06 µM | TGI (DU-145 prostate): 8.5 µM | GI50 (EKVX NSCLC): 5.65 µM | TGI (EKVX NSCLC): 20 µM | GI50 (HCC-2998 colon): 4.82 µM | TGI (HCC-2998 colon): 16.2 µM | GI50 (HCT-116 colon): 1.66 µM | TGI (HCT-116 colon): 6.91 µM | GI50 (HCT-15 colon): 3.42 µM | TGI (HCT-15 colon): 24.5 µM | GI50 (HL-60(TB) leukemia): 2.42 µM | TGI (HL-60(TB) leukemia): 11.6 µM | GI50 (HOP-62 NSCLC): 1.58 µM | TGI (HOP-62 NSCLC): 6.52 µM | GI50 (HOP-92 NSCLC): 0.963 µM | TGI (HOP-92 NSCLC): 4.25 µM | GI50 (HS 578T breast): 1.41 µM | TGI (HS 578T breast): 4.56 µM | GI50 (HT29 colon): 1.51 µM | TGI (HT29 colon): 7.26 µM | GI50 (IGROV1 ovarian): 3.08 µM | TGI (IGROV1 ovarian): 12.3 µM | GI50 (K-562 leukemia): 2.4 µM | TGI (K-562 leukemia): > 50 µM | GI50 (KM12 colon): 5.7 µM | TGI (KM12 colon): 39.2 µM | GI50 (LOX IMVI melanoma): 1.82 µM | TGI (LOX IMVI melanoma): 6.07 µM | GI50 (M14 melanoma): 1.9 µM | TGI (M14 melanoma): 8.45 µM | GI50 (MALME-3M melanoma): 1.07 µM | TGI (MALME-3M melanoma): 2.28 µM | GI50 (MCF7 breast): 2.11 µM | TGI (MCF7 breast): 13.4 µM | GI50 (MDA-MB-231 breast): 2.52 µM | TGI (MDA-MB-231 breast): 9.19 µM | GI50 (MDA-MB-435): 1.76 µM | TGI (MDA-MB-435): 6.85 µM | GI50 (MOLT-4 leukemia): 6.25 µM | TGI (MOLT-4 leukemia): > 50 µM | GI50 (NCI-H226 lung): 5.13 µM | TGI (NCI-H226 lung): 18.1 µM | GI50 (NCI-H23 lung): 3.63 µM | TGI (NCI-H23 lung): 17.5 µM | GI50 (NCI-H460 lung): 2.21 µM | TGI (NCI-H460 lung): 9.2 µM | GI50 (NCI-H522 lung): 5.65 µM | TGI (NCI-H522 lung): 22 µM | GI50 (NCI/ADR-RES ovarian): 2.53 µM | TGI (NCI/ADR-RES ovarian): 11.1 µM | GI50 (OVCAR-3 ovarian): 1.29 µM | TGI (OVCAR-3 ovarian): 3.26 µM | GI50 (OVCAR-4 ovarian): 0.912 µM | TGI (OVCAR-4 ovarian): 1.9 µM | GI50 (OVCAR-5 ovarian): 3.84 µM | TGI (OVCAR-5 ovarian): 17.6 µM | GI50 (OVCAR-8 ovarian): 2.17 µM | TGI (OVCAR-8 ovarian): 9.65 µM | GI50 (PC-3 prostate): 3.14 µM | TGI (PC-3 prostate): 30.9 µM | GI50 (RPMI-8226 leukemia): 3.48 µM | TGI (RPMI-8226 leukemia): > 50 µM | GI50 (RXF 393 renal): 1.45 µM | TGI (RXF 393 renal): 7.36 µM | GI50 (SF-268 CNS): 4.88 µM | TGI (SF-268 CNS): 21.9 µM | GI50 (SF-295 CNS): 5.27 µM | TGI (SF-295 CNS): 15.4 µM | GI50 (SF-539 CNS): 1.68 µM | TGI (SF-539 CNS): 5.84 µM | GI50 (SK-MEL-2 melanoma): 7.89 µM | TGI (SK-MEL-2 melanoma): 20.3 µM | GI50 (SK-MEL-28 melanoma): 1.91 µM | TGI (SK-MEL-28 melanoma): 9.82 µM | GI50 (SK-MEL-5 melanoma): 6.65 µM | TGI (SK-MEL-5 melanoma): 18.3 µM | GI50 (SK-OV-3 ovarian): 5.49 µM | TGI (SK-OV-3 ovarian): 14.2 µM | GI50 (SN12C renal): 4.71 µM | TGI (SN12C renal): 14.7 µM | GI50 (SNB-19 CNS): 6.51 µM | TGI (SNB-19 CNS): 15 µM | GI50 (SNB-75 CNS): 0.949 µM | TGI (SNB-75 CNS): 2.23 µM | GI50 (SR leukemia): 0.675 µM | TGI (SR leukemia): > 50 µM | GI50 (SW-620 colon): 1.82 µM | TGI (SW-620 colon): 6.32 µM | GI50 (T-47D breast): 3.21 µM | TGI (T-47D breast): 17.9 µM | GI50 (TK-10 renal): 2.29 µM | TGI (TK-10 renal): 8.12 µM | GI50 (U251 CNS): 1.43 µM | TGI (U251 CNS): 5.39 µM | GI50 (UACC-257 melanoma): 1.91 µM | TGI (UACC-257 melanoma): 6.88 µM | GI50 (UACC-62 melanoma): 5.54 µM | TGI (UACC-62 melanoma): 12.6 µM | GI50 (UO-31 renal): 1.16 µM | TGI (UO-31 renal): 5.53 µM
